Laboratory results published in patent US20100173972A1, “METHODS AND USES RELATED TO RHBDL4” (MEDICAL RESEARCH COUNCIL, priority 2007, published 2010).
Where a SMILES comes first, the peptide text is derived from it. The star is where a group is joined. Decanoyl = CCCCCCCCCC(=O)*; Cbz = O=C(OCc1ccccc1)*; CH2Cl = ClC*

Assays:
[1] = test system: HB-EGF shedding, COS-7 cells; assay: HB-EGF secretion in COS-7 cells overexpressing the bombesin receptor; type: cell-based, green monkey
Method: Cells were propagated in DMEM supplemented with 10% fetal calf serum. COS-7 cells were transfected in 35 mm wells with FuGENE 6 (Roche) as described (7). In brief, 250 ng plasmid encoding the substrate (as indicated in the description of the figures), 25 ng for the rhomboid tested, 50 ng for the GRP receptor and empty plasmid to bring the total DNA to 1 μg was used. […] Transfection efficiency was monitored by co-transfection of pEGFP (Invitrogen). Sixteen hours post transfection, medium was replaced with serum-free medium containing 10 μM BB94 (British Biotech) unless otherwise stated. For activation of endogenous rhomboid activity, phorbol 12-myristate 13-acetate (PMA) (1 μM, from Sigma) or bombesin (100 nM, from Sigma) was added to the cell medium. For inhibitor studies, the indicated protease inhibitors (from Calbiochem), diluted from a stock solution in DMSO, were compared with a carrier only. […] Cells were solubilized in SDS-sample buffer and analyzed by SDS-PAGE. […] Conditioned media were centrifuged for 10 minutes at full speed in a microfuge to remove cell debris, and subsequently proteins in the supernatant were precipitated by adding trichloroacetic acid (TCA) to 10%. The precipitate was recovered by centrifugation, washed with acetone and dissolved in SDS-PAGE sample buffer and analyzed by SDS-PAGE. […]

mouse RHBDL4 = biological target: T1, mouse RHBDL4 (Mus musculus, UniProt Q8BHC7); assay: Cell-based rhomboid cleavage assay: pro-TGFalpha cleavage by overexpressed RHBDL4; set-up: expressed in transfected cells; host or cells: COS-7 (also HeLa and HEK293T), pcDNA3.1
T1 sequence (Q8BHC7 1-315): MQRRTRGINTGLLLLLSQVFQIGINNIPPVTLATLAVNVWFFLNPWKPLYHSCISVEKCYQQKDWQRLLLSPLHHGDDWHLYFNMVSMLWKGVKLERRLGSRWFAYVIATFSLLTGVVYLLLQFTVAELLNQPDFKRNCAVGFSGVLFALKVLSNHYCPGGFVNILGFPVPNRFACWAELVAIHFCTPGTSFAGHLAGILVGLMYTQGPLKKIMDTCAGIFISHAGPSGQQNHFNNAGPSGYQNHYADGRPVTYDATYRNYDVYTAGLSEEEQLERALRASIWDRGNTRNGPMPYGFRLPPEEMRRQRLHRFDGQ
Method: (§1) Cell culture and cell-based rhomboid cleavage assay. Cells were propagated in DMEM supplemented with 10% fetal calf serum. COS-7 cells were transfected in 35 mm wells with FuGENE 6 (Roche) as described (7). In brief, 250 ng plasmid encoding the substrate (as indicated in the description of the figures), 25 ng for the rhomboid tested, 50 ng for the GRP receptor and empty plasmid to bring the total DNA to 1 μg was used. For protease titration, 2.5 ng to 250 ng plasmid coding RHBDL4 was used. HeLa and HEK293T were transfected with polyethyleneimine (linear, MW 25000; Polysciences) as described (32) using twice the amount of DNA as used with FuGENE. Transfection efficiency was monitored by co-transfection of pEGFP (Invitrogen). […] Cells were solubilized in SDS-sample buffer and analyzed by SDS-PAGE. […] The precipitate was recovered by centrifugation, washed with acetone and dissolved in SDS-PAGE sample buffer and analyzed by SDS-PAGE. […] Subsequently beads were washed with 20 mM Tris-Cl pH 8.0, 50 mM imidazole, eluted with SDS-sample buffer and analyzed by SDS-PAGE and Western blotting (see below). […]
(§2) Western blotting. […] Protein was detected with anti phospho-EGFR antibody 9H2 (1:2000, Upstate). […] Bound antibodies were detected by incubation with secondary antibody (Santa Cruz Biotechnology) followed by enhanced chemiluminescence (Amersham Biosciences).

pro-TGFalpha shedding = assay: BB94 sensitivity of endogenous pro-TGFalpha shedding and trimming (cell-based cleavage assay)
Method: as §1, with “(Invitrogen). Sixteen hours post transfection, medium was replaced with serum-free medium containing 10 μM BB94 (British Biotech) unless otherwise stated. For activation of endogenous rhomboid activity, phorbol 12-myristate 13-acetate (PMA) (1 μM, from Sigma) or bombesin (100 nM, from Sigma) was added to the cell medium.” for “(Invitrogen).”
Western blotting. Proteins were analyzed by 4-20% Tris-Glycine gradient gels (Invitrogen) followed by Western blot analysis using either anti FLAG M2-HRP (1:1000; Sigma), anti HA antibody 16B12 (1:1000; Covance), anti actin antibody ab8227 (1:5000; Abcam) or affinity purified polyclonal rabbit antibody anti RHBDL4 (1:4000; see above). […] Protein was detected with anti phospho-EGFR antibody 9H2 (1:2000, Upstate). […] Bound antibodies were detected by incubation with secondary antibody (Santa Cruz Biotechnology) followed by enhanced chemiluminescence (Amersham Biosciences).

[2] = test system: TGFalpha release, HEK293T cells; assay: Time course after PMA induction of HEK293T cells overexpressing pro-TGFalpha, with protease inhibitors; type: cell-based, human
Method: Cell culture and cell-based rhomboid cleavage assay. Cells were propagated in DMEM supplemented with 10% fetal calf serum. COS-7 cells were transfected in 35 mm wells with FuGENE 6 (Roche) as described (7). In brief, 250 ng plasmid encoding the substrate (as indicated in the description of the figures), 25 ng for the rhomboid tested, 50 ng for the GRP receptor and empty plasmid to bring the total DNA to 1 μg was used. For protease titration, 2.5 ng to 250 ng plasmid coding RHBDL4 was used. HeLa and HEK293T were transfected with polyethyleneimine (linear, MW 25000; Polysciences) as described (32) using twice the amount of DNA as used with FuGENE. Transfection efficiency was monitored by co-transfection of pEGFP (Invitrogen). Sixteen hours post transfection, medium was replaced with serum-free medium containing 10 μM BB94 (British Biotech) unless otherwise stated. For activation of endogenous rhomboid activity, phorbol 12-myristate 13-acetate (PMA) (1 μM, from Sigma) or bombesin (100 nM, from Sigma) was added to the cell medium. For inhibitor studies, the indicated protease inhibitors (from Calbiochem), diluted from a stock solution in DMSO, were compared with a carrier only. Medium was harvested typically after 24 to 30 hours; for inhibitor studies using 3,4-Dichloroisocoumarin (DCI) a time course with 0 minutes, 30 minutes and 4 hours was performed (FIG. 4C). Cells were solubilized in SDS-sample buffer and analyzed by SDS-PAGE. EndoH (New England Biolabs) and PNGaseF (New England Biolabs) treatment of SDS-solubilized cell extracts was performed according to the manufacturers instructions. Conditioned media were centrifuged for 10 minutes at full speed in a microfuge to remove cell debris, and subsequently proteins in the supernatant were precipitated by adding trichloroacetic acid (TCA) to 10%. The precipitate was recovered by centrifugation, washed with acetone and dissolved in SDS-PAGE sample buffer and analyzed by SDS-PAGE. Alternatively to TCA precipitation, TGFalpha-H8 in conditioned medium was captured by metal-chelate chromatography using Ni-NTA agarose beads (Qiagen) in the presence of 20 mM imidazole at pH 8.0. Subsequently beads were washed with 20 mM Tris-Cl pH 8.0, 50 mM imidazole, eluted with SDS-sample buffer and analyzed by SDS-PAGE and Western blotting (see below). Typically, from a 35 mm tissue culture dish, 10% of cell extracts and 20% of tissue culture supernatant were loaded. To increase the sensitivity, for experiments shown in FIGS. 1C, 3E, 4A and 4C, five times the amount of the media fractions were loaded.
Western blotting. Proteins were analyzed by 4-20% Tris-Glycine gradient gels (Invitrogen) followed by Western blot analysis using either anti FLAG M2-HRP (1:1000; Sigma), anti HA antibody 16B12 (1:1000; Covance), anti actin antibody ab8227 (1:5000; Abcam) or affinity purified polyclonal rabbit antibody anti RHBDL4 (1:4000; see above). In order to detect the 6 kDa form of TGFalpha, proteins were transferred on PVDF membrane with 0.2 μm pore size (Millipore) and probed with 1:100 anti TGFalpha antibody 134A-2B3 (Oncogene). For the detection of phosphorylated EGFR, PVDF membranes were blocked in 3% BSA in TBS-Tween supplemented with 200 μM NaVO3. Protein was detected with anti phospho-EGFR antibody 9H2 (1:2000, Upstate). […] Bound antibodies were detected by incubation with secondary antibody (Santa Cruz Biotechnology) followed by enhanced chemiluminescence (Amersham Biosciences).

proteasome = assay: Proteasome inhibitor treatment of cells expressing pro-TGFalpha; type: cell-based
Method: as §1, with “(Invitrogen). Sixteen hours post transfection, medium was replaced with serum-free medium containing 10 μM BB94 (British Biotech) unless otherwise stated. For activation of endogenous rhomboid activity, phorbol 12-myristate 13-acetate (PMA) (1 μM, from Sigma) or bombesin (100 nM, from Sigma) was added to the cell medium.” for “(Invitrogen).”

protein kinase C (PKC) = assay: PMA-induced TGFalpha shedding (transactivation); type: cell-based; settings: PMA 1 μM
Method: as §1, §2

Drosophila Spitz, Q01083 = biological target: T2, Drosophila Spitz, Q01083
T2 chain: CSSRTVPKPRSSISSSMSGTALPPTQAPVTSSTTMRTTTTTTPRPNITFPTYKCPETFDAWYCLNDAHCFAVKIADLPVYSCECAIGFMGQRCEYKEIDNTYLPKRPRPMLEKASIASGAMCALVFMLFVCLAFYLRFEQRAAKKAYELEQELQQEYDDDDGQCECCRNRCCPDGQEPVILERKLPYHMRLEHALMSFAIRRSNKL

[3] = biological target: human pro-TGFalpha, P01135
[4] = biological target: T3, in vitro translated substrate comprising the transmembrane domain of Drosophila Gurken, P42287
T3 chain: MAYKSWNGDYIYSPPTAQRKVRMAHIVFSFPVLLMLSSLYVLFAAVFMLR

[5] = BB94 20 μM, FLAG6-tagged pro-TGFalpha

human pro-TGFalpha, P01135, sequence (P01135 whole entry, looked up, the tested form may be a part): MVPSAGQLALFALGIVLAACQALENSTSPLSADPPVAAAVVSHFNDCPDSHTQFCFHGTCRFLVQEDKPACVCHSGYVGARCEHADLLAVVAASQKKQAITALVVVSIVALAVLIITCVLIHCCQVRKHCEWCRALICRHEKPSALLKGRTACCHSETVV

## CNC(=O)[C@H](Cc1ccccc1)NC(=O)[C@H](CC(C)C)[C@H](CSc1cccs1)C(=O)NO [BB94]
[1]; BB94 20 μM, bombesin treatment
  Bombesin-enhanced HB-EGF release: sensitivity to inhibitor: insensitivity
[1]; unstimulated cells, BB94
  HB-EGF shedding by ADAM proteases in unstimulated cells: sensitivity to inhibitor: sensitive
Mouse RHBDL4; COS-7 cells, BB94 10 μM
  RHBDL4 cleavage of pro-TGFalpha: sensitivity to inhibitor: insensitive
Mouse RHBDL4; HEK293T cells, TGFalpha with juxtamembrane His8-tag
  RHBDL4-triggered TGFalpha release: sensitivity to inhibitor: insensitive
pro-TGFalpha shedding; [5]
  Generation of the higher MW forms of TGFalpha by endogenous shedding: sensitivity to inhibitor: insensitive
  Trimming to smaller intermediates and species lacking the pro-peptide: blocked
pro-TGFalpha shedding; bombesin-treated COS-7 cells overexpressing the bombesin receptor
  Processing of the 37 kDa form to the 6 kDa secreted bioactive ligand: sensitivity to inhibitor: sensitive
[2]; BB94 20 μM, PMA induction, HEK293T
  Release of the 6 kDa form of TGFalpha: inhibited

## CC(C)C[C@@H](C=O)NC(=O)[C@H](CC(C)C)NC(=O)[C@H](CC(C)C)NC(=O)OCc1ccccc1 [MG132] (Cbz-Leu-Leu-Leu-aldehyde)
proteasome; 5 μM
  Effect on pro-TGFalpha forms (proteasomal degradation): led to unglycosylated TGFalpha

## CCCCCCCCCCCCCC(=O)O[C@@H]1[C@@H](C)[C@@]2(O)[C@@H](C=C(CO)C[C@]3(O)C(=O)C(C)=C[C@@H]23)[C@@H]2C(C)(C)[C@]12OC(C)=O [PMA, phorbol 12-myristate 13-acetate]
Protein kinase C (PKC)
  BB94-insensitive TGFalpha release activity: induced
  BB94-sensitive (metalloprotease dependent) trimming of TGFalpha: enhanced

## CC(C)C[C@H](CC(=O)NO)C(=O)N[C@H](C(=O)N[C@@H](C)C(=O)NCCN)C(C)(C)C [TAPI-2]
[2]; inhibitor 20 μM
  Generation and release of the higher molecular weight form of TGFalpha: none of these inhibitors of known proprotein convertases had an effect

## CC[C@H](C)[C@H](NC(=O)[C@H]([C@@H](C)CC)N(C)C(C)=O)C(=O)N[C@H](C(=O)N[C@@H](CC(C)C)C(=O)[C@@]1(C)CO1)[C@@H](C)O [epoxomicin]
proteasome; 2 μM
  Effect on pro-TGFalpha forms (proteasomal degradation): led to unglycosylated TGFalpha

## CCCCCCCCCC(=O)N[C@@H](CCCN=C(N)N)C(=O)N[C@H](C(=O)N[C@@H](CCCCN)C(=O)N[C@@H](CCCN=C(N)N)C(=O)CCl)C(C)C [furin inhibitor I] (Decanoyl-RVKR-CH2Cl)
[2]; inhibitor 100 μM
  Generation and release of the higher molecular weight form of TGFalpha: none of these inhibitors of known proprotein convertases had an effect

## beta-secretase inhibitor IV
[2]; inhibitor 10 μM
  Generation and release of the higher molecular weight form of TGFalpha: none of these inhibitors of known proprotein convertases had an effect

B1: mouse RHBDL4 with an N-terminal HA3-tag (protein)
chain: T1 sequence (Q8BHC7 1-315)
Drosophila Spitz, Q01083
  cleavage: Note that RHBDL4 cleaves Spitz
[3]
  cleavage of pro-TGFalpha, titration of protease plasmid (Western blot): cleavage of TGFalpha requires sub-stoichiometric amounts of RHBDL4

B2: recombinant mouse RHBDL4, C-terminally His6-tagged, from E. coli (protein)
chain: T1 sequence (Q8BHC7 1-315)
[4]
  in vitro cleavage assay (SDS-PAGE, decrease of intact substrate band): The substrate was cleaved, as indicated by the decreased amount of intact substrate band

B3: recombinant mouse RHBDL1 from E. coli (protein)
chain: MDRSSLLQLIQEQQLDPENTGFIGADTFAGLVHSHELPLDPTKLDMLVALAQSNERGQVCYQELVDLISSKRSSSFKRAIANGQRALPRDGLLDEPGLSVYKRFVRYVAYEILPCEVDRRWYFYRHRTCPPPVFMASVTLAQIIVFLCYGARLNKWVLQTYHPEYMKSPLVYHPGHRARAWRFLTYMFMHVGLEQLGFNALLQLMIGVPLEMVHGVLRISLLYLAGVLAGSLTVSITDMRAPVVGGSGGVYALCSAHLANVVMNWAGMRCPYKLLRMVLALVCMSSEVGRAVWLRFSPPLPASGPQPSFMAHLAGAVVGVSMGLTILRSYEERLRDQCGWWVVLLAYGTFLLFAIFWNVFAYDLLGADIPPPP
[4]
  in vitro cleavage assay (SDS-PAGE, decrease of intact substrate band): The substrate was cleaved, as indicated by the decreased amount of intact substrate band

B4: recombinant human RHBDL2 from E. coli (protein)
chain: MAAVHDLEMESMNLNMGREMKEELEEEEKMREDGGGKDRAKSKKVHRIVSKWMLPEKSRGTYLERANCFPPPVFIISISLAELAVFIYYAVWKPQKQWITLDTGILESPFIYSPEKREEAWRFISYMLVHAGVQHILGNLCMQLVLGIPLEMVHKGLRVGLVYLAGVIAGSLASSIFDPLRYLVGASGGVYALMGGYFMNVLVNFQEMIPAFGIFRLLIIILIIVLDMGFALYRRFFVPEDGSPVSFAAHIAGGFAGMSIGYTVFSCFDKALLKDPRFWIAIAAYLACVLFAVFFNIFLSPAN
[4]
  in vitro cleavage assay (SDS-PAGE, decrease of intact substrate band): The substrate was cleaved, as indicated by the decreased amount of intact substrate band

B5: mouse RHBDL1 with an N-terminal HA3-tag (protein)
chain: B3 chain
[3]
  secreted 37 kDa product, FLAG6-tagged pro-TGFalpha (Western blot): overexpression of RHBDL1 caused a minor increase of secreted 37 kDa product
